Test results taken from patent US7932290B2, “Method for the treatment of metabolic disorders” (Wellstat Biologics Corporation, priority 2003, dated 2011).

Columns and labels:
Assay in all cases: Transcription activation potential, GAL4 luciferase reporter in C3A cells
Type in all cases: cell-based
[1] = tested on: Human PPARγ LBD fusion protein
[2] = target: T1, Mouse PPARγ LBD fusion protein (Mus musculus, UniProt P37238)
T1 sequence (P37238 238-503): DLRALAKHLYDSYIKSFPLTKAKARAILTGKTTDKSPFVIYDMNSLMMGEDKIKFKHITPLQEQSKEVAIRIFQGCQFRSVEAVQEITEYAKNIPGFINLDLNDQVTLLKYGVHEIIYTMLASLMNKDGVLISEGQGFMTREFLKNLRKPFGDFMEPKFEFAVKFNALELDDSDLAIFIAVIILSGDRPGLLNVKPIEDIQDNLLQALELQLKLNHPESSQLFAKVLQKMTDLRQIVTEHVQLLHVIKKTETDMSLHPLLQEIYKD

[3] = target: T2, Human PPARα LBD fusion protein (Homo sapiens, UniProt Q07869)
T2 construct: a.a; 167-468)
T2 sequence (Q07869 167-468): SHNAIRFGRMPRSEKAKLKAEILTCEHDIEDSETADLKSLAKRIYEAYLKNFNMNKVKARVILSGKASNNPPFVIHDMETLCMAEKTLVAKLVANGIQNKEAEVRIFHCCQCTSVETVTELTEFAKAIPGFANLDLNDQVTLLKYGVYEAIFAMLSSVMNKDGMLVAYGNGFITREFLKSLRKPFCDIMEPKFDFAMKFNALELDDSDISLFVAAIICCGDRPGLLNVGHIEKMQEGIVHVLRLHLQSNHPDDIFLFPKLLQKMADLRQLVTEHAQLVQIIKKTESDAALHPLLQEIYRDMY

[4] = target: T3, Mouse PPARα LBD fusion protein (Mus musculus, UniProt P23204)
T3 sequence (P23204 239-466): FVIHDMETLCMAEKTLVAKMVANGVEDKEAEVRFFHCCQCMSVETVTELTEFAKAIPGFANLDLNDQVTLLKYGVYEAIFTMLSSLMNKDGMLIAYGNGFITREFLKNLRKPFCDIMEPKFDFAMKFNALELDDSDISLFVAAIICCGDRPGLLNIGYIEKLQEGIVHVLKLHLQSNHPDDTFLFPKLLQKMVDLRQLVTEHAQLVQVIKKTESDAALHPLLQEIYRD

In the case of `Cc1cccc(C)c1COc1cccc(C(=O)O)c1` [Compound CG, 3-(2,6-Dimethylbenzyloxy)benzoic acid], the “transcription activation potential (luciferase) ± standard deviation” value ([1]; 1 μM test compound) is reported as 47.9 ± 7.2 LCPS, the “transcription activation potential (luciferase) ± standard deviation” value ([1]; 3 μM test compound) is reported as 73.6 ± 39.1 LCPS and the “transcription activation potential (luciferase) ± standard deviation” value ([1]; 10 μM test compound) is reported as 72.5 ± 28.2 LCPS. The “transcription activation potential (luciferase) ± standard deviation” value ([1]; 30 μM test compound) was 205.6 ± 37.1 LCPS, the “transcription activation potential (luciferase) ± standard deviation” value ([1]; 100 μM test compound) was 403.6 ± 86.1 LCPS and the “transcription activation potential (luciferase) ± standard deviation” value ([1]; 200 μM test compound) was 598.1 ± 190.4 LCPS. The “transcription activation potential (luciferase) ± standard deviation” value ([2]; 1 μM test compound, Table 20b) was 8.47 ± 5.01 LCPS, the “transcription activation potential (luciferase) ± standard deviation” value ([2]; 1 μM, Table 21b) was 634 ± 195 RLU and the “transcription activation potential (luciferase) ± standard deviation” value ([2]; 3 μM test compound, Table 20b) was 14.8 ± 4.3 LCPS. For the same compound, the “transcription activation potential (luciferase) ± standard deviation” value ([2]; 10 μM test compound, Table 20b) was 20.87 ± 4.1 LCPS, the “transcription activation potential (luciferase) ± standard deviation” value ([2]; 10 μM, Table 21b) was 405 ± 318 RLU and the “transcription activation potential (luciferase) ± standard deviation” value ([2]; 30 μM test compound, Table 20b) was 55.4 ± 30.6 LCPS. The “transcription activation potential (luciferase) ± standard deviation” value ([2]; 30 μM, Table 21b) was 1562 ± 354 RLU, the “transcription activation potential (luciferase) ± standard deviation” value ([2]; 100 μM test compound, Table 20b) was 78.8 ± 23.1 LCPS and the “transcription activation potential (luciferase) ± standard deviation” value ([2]; 100 μM, Table 21b) was 2555 ± 1609 RLU. For the same compound, the “transcription activation potential (luciferase) ± standard deviation” value ([2]; 200 μM test compound, Table 20b) was 101.2 ± 59.1 LCPS, the “transcription activation potential (luciferase) ± standard deviation” value ([3]; 1 μM) was 10.9 ± 11.6 LCPS and the “transcription activation potential (luciferase) ± standard deviation” value ([3]; 3 μM) was 19.1 ± 6.1 LCPS. The “transcription activation potential (luciferase) ± standard deviation” value ([3]; 10 μM) was 17.9 ± 5.2 LCPS, the “transcription activation potential (luciferase) ± standard deviation” value ([3]; 30 μM) was 38.2 ± 21.1 LCPS and the “transcription activation potential (luciferase) ± standard deviation” value ([3]; 100 μM) was 23.9 ± 5.3 LCPS. For the same compound, the “transcription activation potential (luciferase) ± standard deviation” value ([3]; 200 μM) was 159.4 ± 29.6 LCPS, the “transcription activation potential (luciferase) ± standard deviation” value ([4]; 1 μM, Table 20a) was 4.43 ± 2.25 LCPS and the “transcription activation potential (luciferase) ± standard deviation” value ([4]; 1 μM, Table 21a) was 361 ± 398 RLU. For the same compound, the “transcription activation potential (luciferase) ± standard deviation” value ([4]; 3 μM, Table 20a) was 9.17 ± 3.72 LCPS, the “transcription activation potential (luciferase) ± standard deviation” value ([4]; 3 μM, Table 21a) was 706 ± 399 RLU and the “transcription activation potential (luciferase) ± standard deviation” value ([4]; 5 μM, Table 21a) was 492 ± 160 RLU. For the same compound, the “transcription activation potential (luciferase) ± standard deviation” value ([4]; 7 μM, Table 21a) was 652 ± 190 RLU, the “transcription activation potential (luciferase) ± standard deviation” value ([4]; 10 μM, Table 20a) was 7.87 ± 0.7 LCPS and the “transcription activation potential (luciferase) ± standard deviation” value ([4]; 10 μM, Table 21a) was 394 ± 84 RLU. The “transcription activation potential (luciferase) ± standard deviation” value ([4]; 30 μM, Table 20a) was 11.63 ± 5.01 LCPS, the “transcription activation potential (luciferase) ± standard deviation” value ([4]; 30 μM, Table 21a) was 651 ± 643 RLU and the “transcription activation potential (luciferase) ± standard deviation” value ([4]; 100 μM, Table 20a) was 11.8 ± 8.95 LCPS. For the same compound, the “transcription activation potential (luciferase) ± standard deviation” value ([4]; 100 μM, Table 21a) was 926 ± 1362 RLU and the “transcription activation potential (luciferase) ± standard deviation” value ([4]; 200 μM, Table 20a) was 80.3 ± 2 LCPS.
